Measured values: patent publication US20240150293A1, “SPIROCYCLOHEXANE DERIVATIVES, PHARMACEUTICAL COMPOSITIONS CONTAINING THEM AND THEIR USES AS ANTI-APOPTOTIC INHIBITORS” (LES LABORATOIRES SERVIER, priority 2021, published 2024)

molecular target: Cy5-labelled Mcl1 (amino acids 171-321) C286S protein (UniProtKB Q07820) (Homo sapiens (Human), UniProt Q07820, C286S); assay: Inhibition of Mcl-1 by the fluorescence quenching assay (Example A, Method B); assay type: binding; settings: not given
Text: Fluorescence quenching assay measures the change fluorescence intensity of C-terminally Cy5-labelled Mcl1 (amino acids 171-321) C286S protein (UniProtKB® primary accession number Q07820) having an amino acid sequence:
which is linked at the C-terminus to the amino acid X which corresponds to a cysteine labelled on the sulfur with sulpho-Cyanine5 from Lumiprobe GmbH catalogue number 13380, upon binding of a C-terminally labelled peptide derived from PUMA (UniProtKB® primary accession number Q9BXH1) having an amino acid sequence:
which is linked at the C-terminus to the amino acid X′, where X′ is cysteine labelled on the sulfur with TQ5WS from AAT Bioquest catalogue number 2079.
The addition of a compound which binds competitively to the same site as the peptide will result in an increase in the fluorescence intensity of the protein due to displacement of the fluorescence quencher.
An 11-point serial dilution of each compound was prepared in DMSO, the final buffer conditions were 10 mM 4-(2-hydroxyethyl)-1-piperazineethanesulfonic acid [HEPES], 150 mM NaCl, 0.05% Tween 20, pH 7.4 and 5% DMSO. The final protein concentration in the assay was 1 nM with the peptide present at 10, 20 or 400 nM. The experiments were incubated for 2 hours at room temperature before fluorescence intensity was measured on a Biotek SynergyNeo plate reader (Excitation 620 nm, emission 680 nm). The dose response curves were plotted with XL-Fit software using a 4-Parameter Logistic Model (Sigmoidal DoseResponse Model) and the inhibitory concentrations that gave a 50% increase in fluorescence intensity was determined (IC50). The Ki values were determined from the IC50 values according to Cer et al, Nucleic Acids Res, 2009, 37 (WebServer issue): W441-W445. Inhibition constants (Ki) are determined from complete binding inhibition curves (cKi) or from estimated from incomplete binding inhibition curves (eKi) in most cases due to low activity.

Cy5-labelled Mcl1 (amino acids 171-321) C286S protein, sequence (Q07820 171-321 C286S): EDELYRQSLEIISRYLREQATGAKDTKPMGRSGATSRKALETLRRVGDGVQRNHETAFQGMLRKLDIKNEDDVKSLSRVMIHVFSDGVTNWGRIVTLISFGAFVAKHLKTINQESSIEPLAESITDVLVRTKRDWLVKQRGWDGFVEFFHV

Row | Compound | Ki
1 | C[C@@H](COc1ccnc2c1[C@H](C)CCC2)C[C@H]1Cc2cc3c(cc2[C@]12CC[C@@](Nc1cccc(Cl)c1)(C(=O)Oc1ccc4c(c1)CCC4)CC2)OCO3 [Example 937, 2,3-dihydro-1H-inden-5-yl (1r,4S,6′S)-4-(3-chloroanilino)-6′-[(2R)-2-methyl-3-{[(5R)-5-methyl-5,6,7,8-tetrahydroquinolin-4-yl]oxy}propyl]-6′,7′-dihydro-2′H-spiro[cyclohexane-1,5′-indeno[5,6-d][1,3]dioxole]-4-carboxylate] | 28 nM
2 | CC(C)(C)OC(=O)N1CCC(CC2=Cc3ccccc3[C@]23CC[C@@](Nc2cccc(Cl)c2)(C(=O)O)CC3)CC1 [Example 558, (1r,4r)-2′-{[1-(tert-butoxycarbonyl)piperidin-4-yl]methyl}-4-(3-chloroanilino)spiro[cyclohexane-1,1′-indene]-4-carboxylic acid] | 549 nM
3 | O=C(O)[C@]1(Nc2cccc(Cl)c2)CC[C@@]2(CC1)c1ccccc1CC2CC(F)(F)COc1ccnc2c1CCC2 (stereo partly shown) [Example 503, (1r,4r)-4-(3-chloroanilino)-2′-{3-[(6,7-dihydro-5H-cyclopenta[b]pyridin-4-yl)oxy]-2,2-difluoropropyl}-2′,3′-dihydrospiro[cyclohexane-1,1′-indene]-4-carboxylic acid] | 63.8 nM
4 | O=C(O)[C@]1(Nc2cccc(Cl)c2)CC[C@@]2(CC1)c1ccccc1CC2CC(COc1ccnc2c1CCCC2)C(F)F (single isomer, unassigned) [Example 512, (1r,4r)-4-(3-chloroanilino)-2′-(3,3-difluoro-2-{[(5,6,7,8-tetrahydroquinolin-4-yl)oxy]methyl}propyl)-2′,3′-dihydrospiro[cyclohexane-1,1′-indene]-4-carboxylic acid] | 22.7 nM
5 | O=C(O)[C@]1(Nc2cccc(Cl)c2)CC[C@@]2(CC1)c1ccccc1CC2CC(CO)COc1ccnc2c1CCC2 (single isomer, unassigned) [Example 500, (1r,4r)-4-(3-chloroanilino)-2′-(2-{[(6,7-dihydro-5H-cyclopenta[b]pyridin-4-yl)oxy]methyl}-3-hydroxypropyl)-2′,3′-dihydrospiro[cyclohexane-1,1′-indene]-4-carboxylic acid] | 15.5 nM
6 | CC(CC1Cc2ccccc2[C@]12CC[C@@](Nc1cccc(Cl)c1)(C(=O)O)CC2)C(C)Oc1ccnc2c1CCC2 (single isomer, unassigned) [Example 615, (1r,4r)-4-(3-chloroanilino)-2′-{3-[(6,7-dihydro-5H-cyclopenta[b]pyridin-4-yl)oxy]-2-methylbutyl}-2′,3′-dihydrospiro[cyclohexane-1,1′-indene]-4-carboxylic acid] | 241 nM
7 | O=C(O)[C@]1(Nc2cccc(Cl)c2)CC[C@@]2(CC1)c1ccccc1CC2CC(CO)COc1ccnc2c1CCC2 (single isomer, unassigned) [Example 499, (1r,4r)-4-(3-chloroanilino)-2′-(2-{[(6,7-dihydro-5H-cyclopenta[b]pyridin-4-yl)oxy]methyl}-3-hydroxypropyl)-2′,3′-dihydrospiro[cyclohexane-1,1′-indene]-4-carboxylic acid] | 74.1 nM
8 | C[C@H](C[C@H]1Cc2ccccc2[C@]12CC[C@@](Nc1cccc(Cl)c1)(C(=O)O)CC2)[C@@H](C)Oc1ccnc2c1CCC2 [Example 616, (1r,2′S,4S)-4-(3-chloroanilino)-2′-{(2R,3R)-3-[(6,7-dihydro-5H-cyclopenta[b]pyridin-4-yl)oxy]-2-methylbutyl}-2′,3′-dihydrospiro[cyclohexane-1,1′-indene]-4-carboxylic acid] | 12.1 nM
9 | CC(C)COc1cc2c(cc1Cl)C[C@H](C[C@@H](C)COc1ccnc3c1[C@H](C)CCC3)[C@]21CC[C@](Nc2cccc(Cl)c2)(C(=O)O)CC1 [Example 820, (1r,2′S,4S)-5′-chloro-4-(3-chloroanilino)-2′-[(2R)-2-methyl-3-{[(5R)-5-methyl-5,6,7,8-tetrahydroquinolin-4-yl]oxy}propyl]-6′-(2-methylpropoxy)-2′,3′-dihydrospiro[cyclohexane-1,1′-indene]-4-carboxylic acid] | 0.469 nM
10 | CC[C@@H](COc1ccnc2ccsc12)C[C@H]1Cc2ccccc2[C@]12CC[C@@](Nc1cccc(Cl)c1)(C(=O)O)CC2 [Example 538, (1r,2′S,4S)-4-(3-chloroanilino)-2′-[(2R)-2-{[(thieno[3,2-b]pyridin-7-yl)oxy]methyl}butyl]-2′,3′-dihydrospiro[cyclohexane-1,1′-indene]-4-carboxylic acid] | 9.15 nM
11 | O=C(O)[C@]1(Nc2cccc(Cl)c2)CC[C@@]2(CC1)c1ccccc1C[C@@H]2CCCOc1cccc2[nH]ccc12 [Example 486, (1r,2′S,4S)-4-(3-chloroanilino)-2′-{3-[(1H-indol-4-yl)oxy]propyl}-2′,3′-dihydrospiro[cyclohexane-1,1′-indene]-4-carboxylic acid] | 82 nM
12 | O=C(O)[C@]1(Nc2cccc(Cl)c2)CC[C@@]2(CC1)c1ccccc1C[C@H]2CCCOc1cccc2[nH]ccc12 [Example 485, (1r,2′R,4R)-4-(3-chloroanilino)-2′-{3-[(1H-indol-4-yl)oxy]propyl}-2′,3′-dihydrospiro[cyclohexane-1,1′-indene]-4-carboxylic acid] | 45.5 nM

Now from value to compound:

Row | Ki | Compound
13 | 76 nM | Cc1ccc2[nH]ccc2c1OCCC[C@@H]1Cc2ccccc2[C@]12CC[C@@](Nc1cccc(Cl)c1)(C(=O)O)CC2 [Example 489, (1r,2′R,4R)-4-(3-chloroanilino)-2′-{3-[(5-methyl-1H-indol-4-yl)oxy]propyl}-2′,3′-dihydrospiro[cyclohexane-1,1′-indene]-4-carboxylic acid]
14 | 61.8 nM | Cc1ccc2[nH]ccc2c1OCCC[C@H]1Cc2ccccc2[C@]12CC[C@@](Nc1cccc(Cl)c1)(C(=O)O)CC2 [Example 490, (1r,2′S,4S)-4-(3-chloroanilino)-2′-{3-[(5-methyl-1H-indol-4-yl)oxy]propyl}-2′,3′-dihydrospiro[cyclohexane-1,1′-indene]-4-carboxylic acid]
15 | 126 nM | CC[C@H](COc1ccncc1)C[C@@H]1Cc2ccccc2[C@]12CC[C@@](Nc1cccc(Cl)c1)(C(=O)O)CC2 [Example 543, (1r,2′R,4R)-4-(3-chloroanilino)-2′-[(2S)-2-{[(pyridin-4-yl)oxy]methyl}butyl]-2′,3′-dihydrospiro[cyclohexane-1,1′-indene]-4-carboxylic acid]
16 | 25.4 nM | CC[C@@H](COc1ccnc2ccsc12)C[C@@H]1Cc2ccccc2[C@]12CC[C@@](Nc1cccc(Cl)c1)(C(=O)O)CC2 [Example 539, (1r,2′R,4R)-4-(3-chloroanilino)-2′-[(2R)-2-{[(thieno[3,2-b]pyridin-7-yl)oxy]methyl}butyl]-2′,3′-dihydrospiro[cyclohexane-1,1′-indene]-4-carboxylic acid]

same assay, conditions: @ 1 μM, read-out: Mcl-1 inhibition, % at a single concentration

Row | inhibition at 1 µM | Compound
17 | 11.1% | COC(=O)[C@]1(Nc2cccc(Cl)c2)CC[C@@]2(CC1)c1cc3c(cc1C[C@@H]2C[C@@H](C)COc1ccnc2c1[C@H](C)CCC2)OCO3 [Example 839, methyl (1r,4S,6′S)-4-(3-chloroanilino)-6′-[(2R)-2-methyl-3-{[(5R)-5-methyl-5,6,7,8-tetrahydroquinolin-4-yl]oxy}propyl]-6′,7′-dihydro-2′H-spiro[cyclohexane-1,5′-indeno[5,6-d][1,3]dioxole]-4-carboxylate]

same assay, conditions: Ki determined from IC50

Row | Ki | Compound
18 | 37.1 nM | O=C(O)[C@]1(Nc2cccc(Cl)c2)CC[C@]2(CC1)C(CCOc1ccnc3ccsc13)=Cc1ccccc12 [Example 178, (1r,4r)-4-(3-chloroanilino)-2′-{2-[(thieno[3,2-b]pyridin-7-yl)oxy]ethyl}spiro[cyclohexane-1,1′-indene]-4-carboxylic acid]
19 | 14.4 nM | C[C@@H](COc1ccnc2ccsc12)CN1Cc2ccccc2[C@]12CC[C@@](Nc1cccc(Cl)c1)(C(=O)O)CC2 [Example 38, (1s,4S)-4-(3-chloroanilino)-2′-{(2R)-2-methyl-3-[(thieno[3,2-b]pyridin-7-yl)oxy]propyl}-2′,3′-dihydrospiro[cyclohexane-1,1′-isoindole]-4-carboxylic acid]
20 | 503 nM | Cc1cccc(N[C@]2(C(=O)O)CC[C@@]3(CC2)C(Br)=Cc2ccccc23)c1 [Example 88, (1s,4s)-2′-bromo-4-(3-methylanilino)spiro[cyclohexane-1,1′-indene]-4-carboxylic acid]
21 | 139 nM | O=C(O)[C@]1(Nc2cccc(Cl)c2)CC[C@]2(CC1)C(CCc1ccccc1)=Cc1ccccc12 [Example 200, (1r,4r)-4-(3-chloroanilino)-2′-(2-phenylethyl)spiro[cyclohexane-1,1′-indene]-4-carboxylic acid]
22 | 91.6 nM | Cc1cccc2c1C=C(Br)[C@]21CC[C@](Nc2cccc(Cl)c2)(C(=O)O)CC1 [Example 141, (1s,4s)-2′-bromo-4-(3-chloroanilino)-4′-methylspiro[cyclohexane-1,1′-indene]-4-carboxylic acid]
